Test results as given in paper PMC2365101, “Anti-Inflammatory Activity of (Polyphenolic)-Sulfonates and Their Sodium Salts in Rodents” (Metal-Based Drugs, 1998).

Columns and labels:
[1] = target: human leukocyte elastase (RPMI 1788); assay: Elastase activity in human leukocytes RPMI 1788; assay type: biochemical
[2] = tested on: CF1 male mice, LPS Salmonella abortus equi induced death; assay: Protection against septic shock (LPS induced endotoxic shock); assay type: in vivo; settings: for Percent Survival at 52 hr: LPS 10 mg/kg, CF1 male mice, N=6
From the text: (§1) Few reports in the literature indicate interaction at these receptor sites other than by peptides or antibodies. […] Blocking these receptors is desirable because the entire inflammation cascade of events is triggered by the early release of TNFa and IL-1. […] Radioisotopes were obtained from New England Nuclear [Dupont, Boston, MA] and substrates and co- factors were obtained from Sigma Chemical Co. [St. Louis, MO]. […] Cell lines were obtained from American Type Culture Collection [Rockville, MD]. In Vivo Tests Anti-inflammatory screen in mice: Male CF male mice weighing 28-32g obtained from Jackson Lab. [Bar Harbor, MA] were used to screen agents at 8 or 16 mg/kg intraperitoneal [I.P.] x 2 administered 3 hr and 30 min prior to administering the irritant, according to Winter's protocol. Evaluation of the induced edema was made by injecting 2% carrageenan in 0.9% saline into the plantar region of the foot. The opposite foot injected with 0.9% isotonic saline was used as a base line. […] Salmonella abortus equi [Lot # 69F4003] […] Drugs from 2 to 16 mg/kg, I.P. were administered 2 hr prior and 2 hr post-injection of the LPS and then subsequently for every 24 hr for the length ofthe animals' lives. Deaths were recorded every 12 hr and continued for 96 hr. […] In vitro TNFa andIL-1 Measurements and Cellular Regulation IC-21 mouse macrophages were maintained in RPMI-1640 + 10% FCS + P/S. After the cells had grown to confluency, E. coli LPS at 10 Ixg/ml was added to the medium. Agents were incubated at 12.5 to 100 µM final concentration for 18 hr. The medium (100 btl) was collected for TNFCt determinations. Interleukin-1 [IL-1] release was determined using P388D1 cells which were maintained in RPMI-1640 + 10% FCS + P/S. The L929 bioassay was used to quantitate the TNF and the IL-1 levels. The L929 mouse fibroblasts were grown in DMEM + 10% FCS + P/S to confluency in 96 well plates and incubated with 100 tl ofmedium from […] or P388D cells after 18 hr. The cells were stained with 0.2% crystal violet in 20% MeOH and read at 580 nm using a Molecular Devices scanner (SOFT-max program). High Affinity Binding to Receptors on L929-106 Cells Two laCi of 125I-TNFct (human recombinant, 30 mCi/tg New England Nuclear) or 125I-IL-1 (70-120[.t Ci/lxg,New England Nuclear) was added to confluency L929 cells for 90 min or 5 hr, respectively with 25, 50 and 100 tM of the test compounds 12]. The cells were washed repeatedly with isotonic saline, pH.7.2 and aliquots counted. Prostaglandin cylcooxygenase activity Mouse J774AI macrophages maintained in Dulbecco's modified Eagle's medium + 15% FCS + P/S. Cells (5 x 106) were incubated with agents (5 to 100 ].tM final concentration) and 3H-arachidonic acid (100 Ci/mol) for 60 min at 37C in a CO2 incubator. The reaction was terminated with 2N HCI, the mixture extracted 2 X with ether, and the organic layer evaporated.

[3] = tested on: CF1 male mice, carrageenan induced edema; assay: Anti-inflammatory screen in mice (carrageenan induced foot edema); assay type: in vivo; settings: for reduction of edema: 16 mg/kg X 2
From the text: as §1, with “[Bar Harbor, MA] were used to screen agents at 8 or 16 mg/kg intraperitoneal [I.P.] x 2 administered 3 hr and 30 min prior to administering the irritant, according to Winter's protocol.” left out

[4] = target: J774-A1 prostaglandin cyclooxygenase; assay: Prostaglandin cyclooxygenase activity in J774-A1 macrophages; assay type: cell-based, mouse; settings: 60 min; read-out: IC50 Cyclo-oxygenase J774-A1
From the text: as §1

[5] = target: IC-21 macrophage elastase; assay: Elastase activity in IC-21 macrophages; assay type: biochemical, mouse
[6] = target: J774-A1 macrophage elastase; assay: Elastase activity in J774-A1 macrophages; assay type: biochemical, mouse
[7] = tested on: CF1 male mice, LPS Salmonella abortus equi induced death; assay: Protection against septic shock (LPS induced endotoxic shock); assay type: in vivo
[8] = tested on: cytokine synthesis and release; settings: tissue culture; no reference given; read-out: IC50 to block cytokine synthesis and release; cited from earlier work
[9] = 8 mg/Kg X 2, I.P., CF1 male mice, N=6
[10] = 16 mg/Kg X 2, I.P., CF1 male mice, N=6

Row | Structure (SMILES) | IC50 ([1]; 60 min) [µM] | IC50 ([1]; 120 min) [µM] | Percent Survival at 52 hr ([2]; 4 mg/Kg I.P.) [%] | Percent Survival at 52 hr ([2]; 8 mg/Kg I.P.) [%] | protection from LPS induced death ([2]; 16 mg/kg) [%] | Percent of Control (induced edema) [3, 9] | Percent of Control (induced edema) [3, 10] | IC50 [4] [µM] | IC50 ([5]; 60 min) [µM] | IC50 ([5]; 120 min) [µM] | IC50 ([6]; 120 min) [µM] | Percent Survival at 52 hr ([2]; 16 mg/Kg I.P.) [%] | IC50 ([6]; 60 min) [µM] | other results
1 | O=S(=O)(O)c1cc2c(O)c(c1)Cc1cc(S(=O)(=O)O)cc(c1O)Cc1cc(S(=O)(=O)O)cc(c1O)Cc1cc(S(=O)(=O)O)cc(c1O)Cc1cc(S(=O)(=O)O)cc(c1O)Cc1cc(S(=O)(=O)O)cc(c1O)Cc1cc(S(=O)(=O)O)cc(c1O)Cc1cc(S(=O)(=O)O)cc(c1O)C2 [Compound 1] | 57 | 56 | 50 | 50 | 83 | 51 + 4% of Control | 56+ 5% of Control | 20.6 | 54 | 45 | 360 |  |  | reduction of edema [3]: greater than 40%
2 | O=S(=O)(O)c1cc2c(O)c(c1)Cc1cc(S(=O)(=O)O)cc(c1O)Cc1cc(S(=O)(=O)O)cc(c1O)Cc1cc(S(=O)(=O)O)cc(c1O)Cc1cc(S(=O)(=O)O)cc(c1O)Cc1cc(S(=O)(=O)O)cc(c1O)C2 [Compound 2] | 67 | 57 | 50 | 50 | 83 | 47 + 4% of Control | 74+ 5% of Control | 76.2 |  |  | 240 | 83 | 7.9 | Percent Survival at 52 hr ([2]; 2 mg/kg I.P.): 83%
3 | O=S(=O)(O)c1cc2c(O)c(c1)Cc1cc(S(=O)(=O)O)cc(c1O)Cc1cc(S(=O)(=O)O)cc(c1O)Cc1cc(S(=O)(=O)O)cc(c1O)C2 [Compound 3] | 73 | 25 | 50 | 100 |  | 58 + 6% of Control | 61 +5% of Control | 27.7 | 73 | 25 | 280 | 50 | 10 to 30 | Percent Survival at 52 hr ([2]; 2 mg/kg I.P.): 67%; protection from LPS induced death ([2]; 8 mg/kg): 100%; IC50 ([6]; 60 min, listed as #3): 28.8 µM
4 | COc1c2cc(S(=O)(=O)O)cc1Cc1cc(S(=O)(=O)O)cc(c1OC)Cc1cc(S(=O)(=O)O)cc(c1OC)Cc1cc(S(=O)(=O)O)cc(c1OC)Cc1cc(S(=O)(=O)O)cc(c1OC)Cc1cc(S(=O)(=O)O)cc(c1OC)Cc1cc(S(=O)(=O)O)cc(c1OC)Cc1cc(S(=O)(=O)O)cc(c1OC)C2 [Compound 4] | 54 | 45 | 33 | 67 | 83 | 56 + 6% of Control | 48+4% of Control | 59.2 | 57 | 56 | 270 | 83 | 0.3 | reduction of edema [3]: greater than 40%
5 | COc1c2cc(S(=O)(=O)[O-])cc1Cc1cc(S(=O)(=O)[O-])cc(c1OC)Cc1cc(S(=O)(=O)[O-])cc(c1OC)Cc1cc(S(=O)(=O)[O-])cc(c1OC)C2.[Na+].[Na+].[Na+].[Na+] [Compound 5] |  |  |  | 33 | 67 |  | 61 +5% of Control | 65.1 |  | 111 |  | 67 |  | IC50 Elastase J774-A1 ([6]; 120 min): Increased
6 | CC(=O)CCCCn1c(=O)c2c(ncn2C)n(C)c1=O [Pentoxifylline, pentoxifylline] |  |  |  |  |  |  |  |  |  |  |  |  |  | Percent of Control (induced edema) ([3]; 50 mg/Kg X 2, CF1 male mice): 70 + 6% of Control; Percent Survival at 52 hr ([7]; 50 mg/Kg/day): 67 + 6%; protection from LPS induced death ([7]; 50 mg/kg): 67%
7 | CCCCC1C(=O)N(c2ccccc2)N(c2ccccc2)C1=O [Phenylbutazone, phenylbutazone, reference compound] |  |  |  |  |  |  |  |  |  |  |  |  |  | reduction in edema ([3]; 50 mg/kg X 2): 47%
8 | C[C@@H]1C[C@H]2[C@@H]3CCC4=CC(=O)C=C[C@]4(C)[C@@]3(F)[C@@H](O)C[C@]2(C)[C@@]1(O)C(=O)CO [dexamethasone, reference compound] |  |  |  |  |  |  |  |  |  |  |  |  |  | protection from LPS induced death ([2]; dexamethasone dose printed 'at mg/kg' (methods: 1 mg/kg)): 67%
9 | C[C@]12CCC(=O)C=C1CC[C@@H]1[C@@H]2[C@@H](O)C[C@@]2(C)[C@H]1CC[C@]2(O)C(=O)CO [hydrocortisone] |  |  |  |  |  |  |  |  |  |  |  |  |  | IC50 [8]: 10 µM
10 | N=C(N)c1ccc(OCCCCCOc2ccc(C(=N)N)cc2)cc1 [pentamidine] |  |  |  |  |  |  |  |  |  |  |  |  |  | IC50 [8]: 1 µM
